The text below walks through data of patent publication US20210244858A1, “SOFT TISSUE FILLER COMPOSITION WITH HYALURONIC ACID AND BENZYL ALCOHOL” (Prollenium Medical Technologies, Inc., priority 2018, published 2021).

For series [1] the following is noted: 5% solution, animal studies; cited from earlier work.
The conditions of series [2]: cited from earlier work.
Series [3] is classed as physicochemical. The conditions noted are these: for Benzyl alcohol mg/g (55° C.) / Lidocaine mg/g (45° C.): in REVANESSE dermal filler. Here is the method:
The benzyl alcohol product was held for 12 weeks at 55° C. which approximates 2 years shelf life; the amount of benzyl alcohol degraded by only 5.75%. In contrast, the amount of lidocaine degraded by 11.61% over 12 weeks at 45° C., which approximates to 1 year shelf life.

The conditions of series [4]: 0.05% to 5% solution; cited from earlier work.

Molecules are shown by their SMILES. Where two headings read alike, the source gives them in different places.

`OCc1ccccc1` [Benzyl alcohol, benzyl alcohol]: the safety result in series [1] was “deemed safe”. The “injection pain and anesthesia duration” value in series [2] (in combination with lidocaine (1%)) is recorded as “reduces injection pain as well as anesthesia duration”. For the same compound, in series [2] (in vivo), the “duration of anesthetic effect compared with lidocaine” value was “shorter duration than lidocaine”. In addition, the “injection pain compared with plain lidocaine” value in series [2] (injection) is “significantly less painful”. The “stability compared with lidocaine” value in series [3] was “better than lidocaine”. The “Benzyl alcohol mg/g (55° C.)” value amounted to 8.7 mg/g in series [3] (0 weeks), 8.7 mg/g in series [3] (4 weeks), 8.6 mg/g in series [3] (8 weeks) and 8.2 mg/g in series [3] (12 weeks). Further, the amount degraded in series [3] (12 weeks, 8.7 mg/g) was found to be 5.75%. In addition, the anesthetic effectiveness result in series [4] is recorded as “considered somewhat effect”.
Take `CCN(CC)CC(=O)Nc1c(C)cccc1C` [Lidocaine, lidocaine, reference compound]: the “Lidocaine mg/g (45° C.)” value was 3.1 mg/g in series [3] (0 weeks), 2.9 mg/g in series [3] (4 weeks), 2.82 mg/g in series [3] (8 weeks) and 2.74 mg/g in series [3] (12 weeks). The compound also yielded an amount degraded in series [3] (12 weeks, 3.1 mg/g) of 11.61%.
